Test results as given in ChEMBL document CHEMBL4364276, “Discovery of 4-phenyl-2H-benzo[b][1,4]oxazin-3(4H)-one derivatives as potent and orally active PI3K/mTOR dual inhibitors” (Eur J Med Chem, 2019).

Columns and labels:
L02 = experiment: Cytotoxicity against human LO2 cells assessed as reduction in cell viability at 0.625 to 20 uM incubated for 72 hrs by MTT assay; assay type: cell-based; conditions: l02, 72 h
[1] = Inhibition of PI3K/Akt/mTOR signaling in human HeLa cells assessed as reduction in AKT 308 phosphorylation incubated for 24 hrs by Western blot analysis; assay type: cell-based
HeLa [2] = experiment: Antitumor activity against human HeLa cells xenografted in BALB/c nude mouse assessed as tumor growth inhibition at 50 mg/kg, ig administered for 30 days measured every 3 days during compound dosing relative to control; assay type: functional; conditions: po, read-out: TGI
[3] = target: Serine/threonine-protein kinase B-raf (Homo sapiens) (UniProt P15056); experiment: Inhibition of human BRAF at 100 nM using MEK1 (K97R) as substrate by [gamma-33P]-ATP assay
Sequence of Serine/threonine-protein kinase B-raf (Homo sapiens) (P15056 whole entry): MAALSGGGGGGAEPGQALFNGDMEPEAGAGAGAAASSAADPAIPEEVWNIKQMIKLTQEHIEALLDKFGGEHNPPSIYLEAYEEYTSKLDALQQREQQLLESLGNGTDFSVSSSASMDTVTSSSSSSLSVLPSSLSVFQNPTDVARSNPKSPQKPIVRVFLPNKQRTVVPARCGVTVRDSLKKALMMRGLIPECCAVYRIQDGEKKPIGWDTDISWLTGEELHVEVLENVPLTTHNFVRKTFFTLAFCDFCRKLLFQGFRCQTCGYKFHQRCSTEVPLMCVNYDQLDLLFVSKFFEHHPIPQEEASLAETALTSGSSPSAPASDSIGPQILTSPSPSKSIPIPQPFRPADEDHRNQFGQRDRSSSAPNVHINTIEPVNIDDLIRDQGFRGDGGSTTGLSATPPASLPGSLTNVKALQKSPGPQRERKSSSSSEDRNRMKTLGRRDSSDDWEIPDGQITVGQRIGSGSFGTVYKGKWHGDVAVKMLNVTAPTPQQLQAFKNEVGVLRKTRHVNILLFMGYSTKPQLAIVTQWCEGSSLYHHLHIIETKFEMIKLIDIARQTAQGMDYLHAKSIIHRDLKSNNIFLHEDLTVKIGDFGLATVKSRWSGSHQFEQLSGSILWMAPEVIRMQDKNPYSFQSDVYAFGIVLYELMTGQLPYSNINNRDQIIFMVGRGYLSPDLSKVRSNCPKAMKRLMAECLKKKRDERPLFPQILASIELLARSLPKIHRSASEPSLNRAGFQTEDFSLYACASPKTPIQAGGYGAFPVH

[4] = target: Tyrosine-protein kinase Mer (Homo sapiens) (UniProt Q12866); experiment: Inhibition of human c-MER at 100 nM using poly[Glu:Tyr] (4:1) as substrate by [gamma-33P]-ATP assay
[5] = target: Hepatocyte growth factor receptor (Homo sapiens) (UniProt P08581); experiment: Inhibition of human c-MET at 100 nM using KKKSPGEYVNIEFG as substrate by [gamma-33P]-ATP assay
[6] = target: Calcium/calmodulin-dependent protein kinase type 1G (Homo sapiens) (UniProt Q96NX5); experiment: Inhibition of human CAMK1G at 100 nM using KKALRRQETVDAL as substrate by [gamma-33P]-ATP assay
[7] = target: Calcium/calmodulin-dependent protein kinase type II subunit alpha (Homo sapiens) (UniProt Q9UQM7); experiment: Inhibition of human CAMK2A at 100 nM using KKALRRQETVDAL as substrate by [gamma-33P]-ATP assay
Sequence of Calcium/calmodulin-dependent protein kinase type II subunit alpha (Homo sapiens) (Q9UQM7 whole entry): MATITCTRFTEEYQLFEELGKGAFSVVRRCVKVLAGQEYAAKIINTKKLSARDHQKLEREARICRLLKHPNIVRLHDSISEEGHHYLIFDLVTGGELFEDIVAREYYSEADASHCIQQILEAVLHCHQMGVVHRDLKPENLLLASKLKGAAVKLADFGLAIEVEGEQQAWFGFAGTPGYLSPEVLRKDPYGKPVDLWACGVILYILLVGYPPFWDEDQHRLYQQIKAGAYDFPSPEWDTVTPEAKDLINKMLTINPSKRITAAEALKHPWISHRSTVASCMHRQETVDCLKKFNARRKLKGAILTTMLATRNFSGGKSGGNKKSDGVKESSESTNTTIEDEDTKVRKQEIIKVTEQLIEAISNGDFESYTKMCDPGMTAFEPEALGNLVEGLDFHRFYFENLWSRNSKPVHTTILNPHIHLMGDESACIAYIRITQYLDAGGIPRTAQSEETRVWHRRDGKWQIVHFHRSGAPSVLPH

[8] = target: Calcium/calmodulin-dependent protein kinase type IV (Homo sapiens) (UniProt Q16566); experiment: Inhibition of human CAMK4 at 100 nM using KKLNRTLSFAEPG as substrate by [gamma-33P]-ATP assay
Sequence of Calcium/calmodulin-dependent protein kinase type IV (Homo sapiens) (Q16566 whole entry): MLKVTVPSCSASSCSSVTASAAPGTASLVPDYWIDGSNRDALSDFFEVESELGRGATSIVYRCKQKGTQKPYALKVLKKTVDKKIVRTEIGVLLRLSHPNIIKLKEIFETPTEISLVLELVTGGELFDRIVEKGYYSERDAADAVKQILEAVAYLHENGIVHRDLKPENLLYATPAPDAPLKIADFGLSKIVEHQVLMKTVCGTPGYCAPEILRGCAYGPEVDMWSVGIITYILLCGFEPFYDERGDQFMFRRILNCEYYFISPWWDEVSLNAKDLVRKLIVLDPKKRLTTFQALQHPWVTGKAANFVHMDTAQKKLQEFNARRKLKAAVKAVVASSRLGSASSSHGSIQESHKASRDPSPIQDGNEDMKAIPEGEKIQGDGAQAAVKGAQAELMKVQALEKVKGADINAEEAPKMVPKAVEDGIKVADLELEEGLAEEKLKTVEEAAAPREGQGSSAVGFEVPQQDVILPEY

[9] = target: CDK6/cyclin D3 (Homo sapiens) (UniProt P30281+Q00534); experiment: Inhibition of human CDK6/cyclin-D3 at 100 nM using RB protein as substrate by [gamma-33P]-ATP assay; assay type: protein-complex assay
[10] = target: Casein kinase I isoform epsilon (Homo sapiens) (UniProt P49674); experiment: Inhibition of human CK1E at 100 nM using KRRRAL[pS]VASLPGL as substrate by [gamma-33P]-ATP assay
[11] = target: Tyrosine-protein kinase CSK (Homo sapiens) (UniProt P41240); experiment: Inhibition of human CSK at 100 nM using poly[Glu:Tyr] (4:1) as substrate by [gamma-33P]-ATP assay
[12] = target: Ephrin type-A receptor 2 (Homo sapiens) (UniProt P29317); experiment: Inhibition of human EPHA2 at 100 nM using poly[Glu:Tyr] (4:1) as substrate by [gamma-33P]-ATP assay
[13] = target: Vascular endothelial growth factor receptor 1 (Homo sapiens) (UniProt P17948); experiment: Inhibition of human FLT1 at 100 nM using poly[Glu:Tyr] (4:1) as substrate by [gamma-33P]-ATP assay
[14] = target: Serine/threonine-protein kinase haspin (Homo sapiens) (UniProt Q8TF76); experiment: Inhibition of human haspin at 100 nM using Histone H3 as substrate by [gamma-33P]-ATP assay
[15] = target: Vascular endothelial growth factor receptor 2 (Homo sapiens) (UniProt P35968); experiment: Inhibition of human KDR at 100 nM using poly[Glu:Tyr] (4:1) as substrate by [gamma-33P]-ATP assay
Sequence of Vascular endothelial growth factor receptor 2 (Homo sapiens) (P35968 whole entry): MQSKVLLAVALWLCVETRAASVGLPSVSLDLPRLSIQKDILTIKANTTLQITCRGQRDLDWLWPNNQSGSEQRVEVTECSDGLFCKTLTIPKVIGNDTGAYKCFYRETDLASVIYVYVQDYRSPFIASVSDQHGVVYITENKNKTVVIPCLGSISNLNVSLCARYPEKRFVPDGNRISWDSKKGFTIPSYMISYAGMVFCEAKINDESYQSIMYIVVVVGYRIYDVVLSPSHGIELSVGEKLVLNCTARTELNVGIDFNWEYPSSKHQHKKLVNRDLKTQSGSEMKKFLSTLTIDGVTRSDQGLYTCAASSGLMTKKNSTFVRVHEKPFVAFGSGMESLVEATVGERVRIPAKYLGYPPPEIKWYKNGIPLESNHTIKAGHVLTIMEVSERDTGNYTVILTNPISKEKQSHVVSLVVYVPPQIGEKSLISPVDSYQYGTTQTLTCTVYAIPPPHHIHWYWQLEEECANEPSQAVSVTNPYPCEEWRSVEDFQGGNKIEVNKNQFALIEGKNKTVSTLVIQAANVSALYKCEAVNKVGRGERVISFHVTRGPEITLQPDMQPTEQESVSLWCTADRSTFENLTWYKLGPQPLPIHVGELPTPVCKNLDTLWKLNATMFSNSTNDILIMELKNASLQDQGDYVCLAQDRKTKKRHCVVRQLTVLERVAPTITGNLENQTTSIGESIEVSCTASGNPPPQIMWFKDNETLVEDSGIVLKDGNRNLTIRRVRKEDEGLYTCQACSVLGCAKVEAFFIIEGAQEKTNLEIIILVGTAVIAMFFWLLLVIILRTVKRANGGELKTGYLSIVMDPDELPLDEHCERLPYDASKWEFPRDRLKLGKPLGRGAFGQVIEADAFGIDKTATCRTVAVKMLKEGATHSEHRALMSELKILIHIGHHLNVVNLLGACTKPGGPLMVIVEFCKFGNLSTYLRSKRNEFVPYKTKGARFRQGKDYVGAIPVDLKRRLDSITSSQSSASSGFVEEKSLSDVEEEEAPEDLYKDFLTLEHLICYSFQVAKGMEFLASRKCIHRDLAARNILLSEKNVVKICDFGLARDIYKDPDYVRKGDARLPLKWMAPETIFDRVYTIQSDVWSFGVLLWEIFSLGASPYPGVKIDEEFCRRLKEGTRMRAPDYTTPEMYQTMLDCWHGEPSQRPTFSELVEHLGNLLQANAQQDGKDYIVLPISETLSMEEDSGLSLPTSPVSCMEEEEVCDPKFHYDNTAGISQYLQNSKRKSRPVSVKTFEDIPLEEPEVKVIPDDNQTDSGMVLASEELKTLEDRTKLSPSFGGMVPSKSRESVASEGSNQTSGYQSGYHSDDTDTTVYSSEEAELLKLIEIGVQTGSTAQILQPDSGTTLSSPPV

[16] = target: Mitogen-activated protein kinase kinase kinase kinase 5 (Homo sapiens) (UniProt Q9Y4K4); experiment: Inhibition of human KHS at 100 nM using MBP as substrate by [gamma-33P]-ATP assay
[17] = target: Serine/threonine-protein kinase LATS1 (Homo sapiens) (UniProt O95835); experiment: Inhibition of human LATS1 at 100 nM using KKRNRRLSVA as substrate by [gamma-33P]-ATP assay
[18] = target: Misshapen-like kinase 1 (Homo sapiens) (UniProt Q8N4C8); experiment: Inhibition of human MINK1 at 100 nM using MBP as substrate by [gamma-33P]-ATP assay
[19] = target: Mitogen-activated protein kinase kinase kinase 21 (Homo sapiens) (UniProt Q5TCX8); experiment: Inhibition of human MLK4 at 100 nM using MEK1 as substrate by [gamma-33P]-ATP assay
[20] = target: Myosin light chain kinase (Homo sapiens) (UniProt Q32MK0); experiment: Inhibition of human MYLK3 at 100 nM using KKRPQRRYSNVF as substrate by [gamma-33P]-ATP assay
[21] = target: 3-phosphoinositide-dependent protein kinase 1 (Homo sapiens) (UniProt O15530); experiment: Inhibition of human PDK1/PDPk1 at 100 nM using [KTFCGTPEYLAPEVRREPRILSEEEQEMFRDFDYIADWC as substrate by [gamma-33P]-ATP assay
Sequence of 3-phosphoinositide-dependent protein kinase 1 (Homo sapiens) (O15530 whole entry): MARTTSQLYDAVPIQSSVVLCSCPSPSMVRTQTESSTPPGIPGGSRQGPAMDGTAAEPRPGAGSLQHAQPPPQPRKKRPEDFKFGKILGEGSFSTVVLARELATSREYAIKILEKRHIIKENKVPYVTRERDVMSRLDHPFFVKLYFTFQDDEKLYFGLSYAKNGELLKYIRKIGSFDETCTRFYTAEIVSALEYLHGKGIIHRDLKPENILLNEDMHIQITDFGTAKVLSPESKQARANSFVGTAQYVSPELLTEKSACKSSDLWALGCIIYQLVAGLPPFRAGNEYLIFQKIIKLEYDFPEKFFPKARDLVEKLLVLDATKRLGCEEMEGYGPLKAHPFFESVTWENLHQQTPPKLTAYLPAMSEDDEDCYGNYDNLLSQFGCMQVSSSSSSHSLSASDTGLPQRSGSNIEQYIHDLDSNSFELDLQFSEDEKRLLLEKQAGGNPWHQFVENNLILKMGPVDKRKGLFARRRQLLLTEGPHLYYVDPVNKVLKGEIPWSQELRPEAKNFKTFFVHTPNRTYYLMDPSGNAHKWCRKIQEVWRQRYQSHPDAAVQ

[22] = target: Serine/threonine-protein kinase D1 (Homo sapiens) (UniProt Q15139); experiment: Inhibition of human PKCmu at 100 nM using KKLNRTLSVA as substrate by [gamma-33P]-ATP assay
[23] = target: Serine/threonine-protein kinase N1 (Homo sapiens) (UniProt Q16512); experiment: Inhibition of human PKN1 at 100 nM using KKLNRTLSVA as substrate by [gamma-33P]-ATP assay
[24] = target: Serine/threonine-protein kinase PLK3 (Homo sapiens) (UniProt Q9H4B4); experiment: Inhibition of human PLK3 at 100 nM using casein as substrate by [gamma-33P]-ATP assay
Sequence of Serine/threonine-protein kinase PLK3 (Homo sapiens) (Q9H4B4 whole entry, looked up): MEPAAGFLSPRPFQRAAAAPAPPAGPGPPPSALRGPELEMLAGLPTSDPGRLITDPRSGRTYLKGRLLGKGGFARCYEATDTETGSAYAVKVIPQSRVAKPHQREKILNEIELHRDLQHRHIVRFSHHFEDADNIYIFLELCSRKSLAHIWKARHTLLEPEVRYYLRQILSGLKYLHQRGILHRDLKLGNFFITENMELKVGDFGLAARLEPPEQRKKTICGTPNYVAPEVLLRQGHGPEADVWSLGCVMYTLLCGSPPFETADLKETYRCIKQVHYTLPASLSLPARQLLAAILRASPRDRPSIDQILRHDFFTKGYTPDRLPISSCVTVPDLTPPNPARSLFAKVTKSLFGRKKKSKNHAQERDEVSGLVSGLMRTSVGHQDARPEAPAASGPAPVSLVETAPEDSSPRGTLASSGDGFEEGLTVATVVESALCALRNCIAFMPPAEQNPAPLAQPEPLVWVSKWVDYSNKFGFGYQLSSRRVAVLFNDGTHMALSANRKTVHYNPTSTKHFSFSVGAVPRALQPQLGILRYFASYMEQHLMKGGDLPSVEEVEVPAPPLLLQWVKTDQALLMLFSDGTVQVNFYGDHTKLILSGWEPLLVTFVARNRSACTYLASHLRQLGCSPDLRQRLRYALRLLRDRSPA

[25] = target: Proto-oncogene tyrosine-protein kinase ROS (Homo sapiens) (UniProt P08922); experiment: Inhibition of human ROS at 100 nM using KKKSPGEYVNIEFG as substrate by [gamma-33P]-ATP assay
[26] = target: Serine/threonine-protein kinase Sgk3 (Homo sapiens) (UniProt Q96BR1); experiment: Inhibition of human SGK3 at 100 nM using GRPRTSSFAEG as substrate by [gamma-33P]-ATP assay
Sequence of Serine/threonine-protein kinase Sgk3 (Homo sapiens) (Q96BR1 whole entry): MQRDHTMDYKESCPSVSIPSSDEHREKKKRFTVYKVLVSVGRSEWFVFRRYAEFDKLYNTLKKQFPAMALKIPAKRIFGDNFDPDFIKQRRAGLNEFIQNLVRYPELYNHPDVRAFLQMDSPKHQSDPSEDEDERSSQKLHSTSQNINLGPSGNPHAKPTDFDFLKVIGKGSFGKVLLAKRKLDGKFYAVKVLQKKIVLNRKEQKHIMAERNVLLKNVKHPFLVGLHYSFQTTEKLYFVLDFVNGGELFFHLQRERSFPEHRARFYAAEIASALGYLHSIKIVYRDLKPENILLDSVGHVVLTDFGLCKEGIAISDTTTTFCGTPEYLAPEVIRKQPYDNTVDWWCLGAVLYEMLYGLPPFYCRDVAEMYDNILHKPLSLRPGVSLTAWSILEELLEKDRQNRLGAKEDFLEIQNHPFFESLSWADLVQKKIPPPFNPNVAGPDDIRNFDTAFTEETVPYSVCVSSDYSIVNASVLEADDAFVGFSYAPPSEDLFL

[27] = target: Tyrosine-protein kinase SYK (Homo sapiens) (UniProt P43405); experiment: Inhibition of human SYK at 100 nM using poly[Glu:Tyr] (4:1) as substrate by [gamma-33P]-ATP assay
[28] = target: Testis-specific serine/threonine-protein kinase 3 (Homo sapiens) (UniProt Q96PN8); experiment: Inhibition of human TSSK3 at 100 nM using KKKVSRSGLYRSPSMPENLNRPR as substrate by [gamma-33P]-ATP assay
Sequence of Testis-specific serine/threonine-protein kinase 3 (Homo sapiens) (Q96PN8 whole entry): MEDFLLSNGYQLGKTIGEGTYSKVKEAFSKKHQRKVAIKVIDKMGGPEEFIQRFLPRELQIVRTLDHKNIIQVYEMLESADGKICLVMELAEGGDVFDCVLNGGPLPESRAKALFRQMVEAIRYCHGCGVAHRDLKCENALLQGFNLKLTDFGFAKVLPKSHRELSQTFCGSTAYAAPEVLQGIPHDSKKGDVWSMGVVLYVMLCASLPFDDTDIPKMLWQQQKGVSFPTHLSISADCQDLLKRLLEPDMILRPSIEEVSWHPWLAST

[29] = target: Mitogen-activated protein kinase kinase kinase 20 (Homo sapiens) (UniProt Q9NYL2); experiment: Inhibition of human ZAK at 100 nM using MBP as substrate by [gamma-33P]-ATP assay
HeLa [30] = experiment: Antitumor activity against human HeLa cells xenografted in ig dosed BALB/c nude mouse assessed as tumor growth inhibition administered for 30 days measured every 3 days during compound dosing relative to control; assay type: functional, organism-based

Structure (SMILES): COc1ccc(N2C(=O)COc3ccc(-c4cnc(OC)c(NS(=O)(=O)c5ccc(F)cc5)c4)cc32)cc1
- Activity (L02): Non-Toxic
- inhibition [1]: Dose-dependent effect
- inhibition in vivo at 50 mg/kg (HeLa [2]): 87.7%
- inhibition [3]: 5.74%
- inhibition [4]: 5.47%
- inhibition [5]: -7.9%
- inhibition [6]: 14.6%
- inhibition [7]: 0.08%
- inhibition [8]: 12%
- inhibition [9]: 3.81%
- inhibition [10]: 3.34%
- inhibition [11]: 1%
- inhibition [12]: 19.2%
- inhibition [13]: 3.08%
- inhibition [14]: 12.1%
- inhibition [15]: -3.23%
- inhibition [16]: -9.84%
- inhibition [17]: 10.1%
- inhibition [18]: 9.96%
- inhibition [19]: 5.78%
- inhibition [20]: 3.77%
- inhibition [21]: -3.45%
- inhibition [22]: 25.9%
- inhibition [23]: 16.8%
- inhibition [24]: -5.25%
- inhibition [25]: 15.3%
- inhibition [26]: 3.8%
- inhibition [27]: 3.43%
- inhibition [28]: -8.01%
- inhibition [29]: -6.81%
- TGI (HeLa [30]): Dose-dependent effect
